The values below come from PMC5708334, “Synthesis of kinase inhibitors containing a pentafluorosulfanyl moiety” (Organic & Biomolecular Chemistry, 2017).

Assay [1] relates to T47D. Nature of the assay: Cell proliferation assay. The assay is classed as cell-based. The note with it: Homo sapiens, 50% reduction in cellular proliferation vs DMSO-treated control, read-out: GC50 T47D. From the text:
(§1) The synthesized compounds were next tested in breast cancer and non-transformed breast cell lines.

The test system of assay [2] is MCF7. Nature of the assay: Cell proliferation assay. The assay is classed as cell-based. The note with it: Homo sapiens, 50% reduction in cellular proliferation vs DMSO-treated control, read-out: GC50 MCF7.
Text: as §1

In assay [3] the target is STK16 (Serine/threonine-protein kinase 16) (Homo sapiens, UniProt O75716). Description: Kinase binding displacement assay. The note with it: no ATP present.
The target in assay [4] is FLT-4 (h) (VEGFR3) (Homo sapiens, UniProt P35916). Description: Biochemical kinase assay (CEREP). The conditions noted are these: for IC50: 10 μM ATP, performed by CEREP. As to the method:
We tested all synthetic compounds against a panel of kinases in a biochemical assay. Each data point was measured in duplicate (technical replicates). […] Additional kinase binding studies were performed vs. a select group of functionally and structurally divergent kinases including AAK1 (Adaptor-associated protein kinase 1), BMP2K (BMP-2-inducible protein kinase, where BMP is bone morphogenic protein), GAK (Cyclin G-associated kinase) and STK16 (Serine/threonine-protein kinase 16) (Table 1).

Assay [5] has as its target AAK1 (Adaptor-associated protein kinase 1) (Homo sapiens, UniProt Q2M2I8). Description: Kinase binding displacement assay. The conditions noted are these: no ATP present.
Assay [6] addresses T1, DYRK3 (h) (Homo sapiens, UniProt O43781).
T1 sequence (O43781 1-588): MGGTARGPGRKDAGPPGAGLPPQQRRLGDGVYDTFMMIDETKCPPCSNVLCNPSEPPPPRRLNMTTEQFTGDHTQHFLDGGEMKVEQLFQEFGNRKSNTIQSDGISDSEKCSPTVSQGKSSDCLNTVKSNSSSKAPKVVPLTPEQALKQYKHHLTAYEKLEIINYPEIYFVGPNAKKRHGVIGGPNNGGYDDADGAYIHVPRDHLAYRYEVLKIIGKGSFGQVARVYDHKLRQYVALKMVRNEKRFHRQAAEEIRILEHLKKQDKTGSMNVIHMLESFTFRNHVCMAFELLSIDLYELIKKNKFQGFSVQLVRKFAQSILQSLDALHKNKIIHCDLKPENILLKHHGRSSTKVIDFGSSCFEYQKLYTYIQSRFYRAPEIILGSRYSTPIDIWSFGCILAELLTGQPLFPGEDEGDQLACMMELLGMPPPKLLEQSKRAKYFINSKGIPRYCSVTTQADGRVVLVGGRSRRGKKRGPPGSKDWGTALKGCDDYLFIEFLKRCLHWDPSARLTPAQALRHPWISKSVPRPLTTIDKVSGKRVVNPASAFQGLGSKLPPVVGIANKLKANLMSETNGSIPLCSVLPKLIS
Description: Biochemical kinase assay (CEREP). The conditions noted are these: for IC50: 10 μM ATP, performed by CEREP.

Assay [7] addresses BMP2K (BMP-2-inducible protein kinase) (Homo sapiens, UniProt Q9NSY1). Nature of the assay: Kinase binding displacement assay. The conditions noted are these: no ATP present.
The target of assay [8] is PDGFRα (h) (Homo sapiens, UniProt P16234). Description: Biochemical kinase assay (CEREP). The note with it: for IC50: 10 μM ATP, performed by CEREP.
Assay [9] concerns MCF7 and T47D breast cancer cell. Description: Cell proliferation assay (range over both lines). The assay is classed as cell-based. The conditions noted are these: range over both compounds and both cell lines; read-out: GC50 values, MCF7 and T47D (range).
Text: as §1

For assay [10], the target named is T2, GAK (Cyclin G-associated kinase) (Homo sapiens, UniProt O14976).
T2 sequence (O14976 1-1311): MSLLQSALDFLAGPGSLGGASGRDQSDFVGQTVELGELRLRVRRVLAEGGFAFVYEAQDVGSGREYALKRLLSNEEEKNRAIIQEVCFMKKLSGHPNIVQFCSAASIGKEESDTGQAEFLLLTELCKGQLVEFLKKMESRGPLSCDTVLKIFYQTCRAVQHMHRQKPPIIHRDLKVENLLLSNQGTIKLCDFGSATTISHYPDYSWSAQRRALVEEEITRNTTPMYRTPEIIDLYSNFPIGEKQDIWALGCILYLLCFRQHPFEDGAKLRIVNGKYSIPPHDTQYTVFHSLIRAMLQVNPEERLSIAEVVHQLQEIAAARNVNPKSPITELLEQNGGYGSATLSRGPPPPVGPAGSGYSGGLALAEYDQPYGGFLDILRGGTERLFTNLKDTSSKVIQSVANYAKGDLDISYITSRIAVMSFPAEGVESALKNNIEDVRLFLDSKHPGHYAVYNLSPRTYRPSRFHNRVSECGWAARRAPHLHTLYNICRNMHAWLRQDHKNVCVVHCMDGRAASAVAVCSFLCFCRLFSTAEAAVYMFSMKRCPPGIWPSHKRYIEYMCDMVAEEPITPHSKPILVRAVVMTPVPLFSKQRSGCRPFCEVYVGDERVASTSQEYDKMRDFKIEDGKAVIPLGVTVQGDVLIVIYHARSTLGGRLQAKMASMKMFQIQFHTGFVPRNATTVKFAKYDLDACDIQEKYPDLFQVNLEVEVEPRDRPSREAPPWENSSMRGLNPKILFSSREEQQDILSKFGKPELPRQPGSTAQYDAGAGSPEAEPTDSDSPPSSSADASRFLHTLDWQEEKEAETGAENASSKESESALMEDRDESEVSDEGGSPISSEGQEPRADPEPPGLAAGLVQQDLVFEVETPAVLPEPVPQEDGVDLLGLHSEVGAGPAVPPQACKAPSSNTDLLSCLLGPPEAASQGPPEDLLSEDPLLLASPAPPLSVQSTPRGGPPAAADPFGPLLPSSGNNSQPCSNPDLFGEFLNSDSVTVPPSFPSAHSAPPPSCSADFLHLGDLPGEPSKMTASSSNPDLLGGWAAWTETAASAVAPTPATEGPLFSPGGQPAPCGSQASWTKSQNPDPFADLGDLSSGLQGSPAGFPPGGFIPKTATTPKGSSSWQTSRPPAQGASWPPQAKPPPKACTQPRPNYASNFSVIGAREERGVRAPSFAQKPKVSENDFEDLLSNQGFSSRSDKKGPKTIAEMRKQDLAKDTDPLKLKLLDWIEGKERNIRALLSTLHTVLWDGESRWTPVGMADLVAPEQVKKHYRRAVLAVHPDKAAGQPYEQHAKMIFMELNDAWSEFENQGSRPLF
Description: Kinase binding displacement assay. The conditions noted are these: no ATP present.

Where only a bound is given, the exact number is not on record here.

AAK1 (Adaptor-associated protein kinase 1), sequence (Q2M2I8 whole entry, species assumed): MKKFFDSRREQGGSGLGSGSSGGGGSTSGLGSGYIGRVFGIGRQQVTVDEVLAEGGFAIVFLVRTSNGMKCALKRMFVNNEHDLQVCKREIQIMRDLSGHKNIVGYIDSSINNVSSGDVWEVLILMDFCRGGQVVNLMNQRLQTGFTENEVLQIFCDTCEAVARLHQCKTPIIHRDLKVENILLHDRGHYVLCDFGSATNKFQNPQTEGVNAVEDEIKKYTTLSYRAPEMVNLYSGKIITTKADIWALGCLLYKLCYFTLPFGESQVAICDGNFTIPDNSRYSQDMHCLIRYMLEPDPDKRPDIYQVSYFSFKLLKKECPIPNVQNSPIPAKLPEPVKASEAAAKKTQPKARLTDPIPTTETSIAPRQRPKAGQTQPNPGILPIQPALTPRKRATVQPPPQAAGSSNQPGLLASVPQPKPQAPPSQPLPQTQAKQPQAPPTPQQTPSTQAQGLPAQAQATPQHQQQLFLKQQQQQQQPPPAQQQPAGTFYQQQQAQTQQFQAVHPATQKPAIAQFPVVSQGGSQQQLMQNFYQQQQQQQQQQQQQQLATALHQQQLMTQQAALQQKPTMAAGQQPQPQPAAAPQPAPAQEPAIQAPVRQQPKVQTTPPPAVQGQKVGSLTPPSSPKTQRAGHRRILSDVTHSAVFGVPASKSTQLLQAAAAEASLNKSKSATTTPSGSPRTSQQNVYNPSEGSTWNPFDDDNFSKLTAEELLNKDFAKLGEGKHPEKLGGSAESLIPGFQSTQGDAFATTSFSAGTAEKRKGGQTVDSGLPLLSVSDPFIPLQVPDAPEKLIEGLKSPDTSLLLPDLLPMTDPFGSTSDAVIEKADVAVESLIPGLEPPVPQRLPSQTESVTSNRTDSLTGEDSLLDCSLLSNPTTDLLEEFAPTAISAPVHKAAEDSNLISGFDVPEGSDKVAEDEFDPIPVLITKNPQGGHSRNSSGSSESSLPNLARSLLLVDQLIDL
FLT-4 (h) (VEGFR3), sequence (P35916 25-1363): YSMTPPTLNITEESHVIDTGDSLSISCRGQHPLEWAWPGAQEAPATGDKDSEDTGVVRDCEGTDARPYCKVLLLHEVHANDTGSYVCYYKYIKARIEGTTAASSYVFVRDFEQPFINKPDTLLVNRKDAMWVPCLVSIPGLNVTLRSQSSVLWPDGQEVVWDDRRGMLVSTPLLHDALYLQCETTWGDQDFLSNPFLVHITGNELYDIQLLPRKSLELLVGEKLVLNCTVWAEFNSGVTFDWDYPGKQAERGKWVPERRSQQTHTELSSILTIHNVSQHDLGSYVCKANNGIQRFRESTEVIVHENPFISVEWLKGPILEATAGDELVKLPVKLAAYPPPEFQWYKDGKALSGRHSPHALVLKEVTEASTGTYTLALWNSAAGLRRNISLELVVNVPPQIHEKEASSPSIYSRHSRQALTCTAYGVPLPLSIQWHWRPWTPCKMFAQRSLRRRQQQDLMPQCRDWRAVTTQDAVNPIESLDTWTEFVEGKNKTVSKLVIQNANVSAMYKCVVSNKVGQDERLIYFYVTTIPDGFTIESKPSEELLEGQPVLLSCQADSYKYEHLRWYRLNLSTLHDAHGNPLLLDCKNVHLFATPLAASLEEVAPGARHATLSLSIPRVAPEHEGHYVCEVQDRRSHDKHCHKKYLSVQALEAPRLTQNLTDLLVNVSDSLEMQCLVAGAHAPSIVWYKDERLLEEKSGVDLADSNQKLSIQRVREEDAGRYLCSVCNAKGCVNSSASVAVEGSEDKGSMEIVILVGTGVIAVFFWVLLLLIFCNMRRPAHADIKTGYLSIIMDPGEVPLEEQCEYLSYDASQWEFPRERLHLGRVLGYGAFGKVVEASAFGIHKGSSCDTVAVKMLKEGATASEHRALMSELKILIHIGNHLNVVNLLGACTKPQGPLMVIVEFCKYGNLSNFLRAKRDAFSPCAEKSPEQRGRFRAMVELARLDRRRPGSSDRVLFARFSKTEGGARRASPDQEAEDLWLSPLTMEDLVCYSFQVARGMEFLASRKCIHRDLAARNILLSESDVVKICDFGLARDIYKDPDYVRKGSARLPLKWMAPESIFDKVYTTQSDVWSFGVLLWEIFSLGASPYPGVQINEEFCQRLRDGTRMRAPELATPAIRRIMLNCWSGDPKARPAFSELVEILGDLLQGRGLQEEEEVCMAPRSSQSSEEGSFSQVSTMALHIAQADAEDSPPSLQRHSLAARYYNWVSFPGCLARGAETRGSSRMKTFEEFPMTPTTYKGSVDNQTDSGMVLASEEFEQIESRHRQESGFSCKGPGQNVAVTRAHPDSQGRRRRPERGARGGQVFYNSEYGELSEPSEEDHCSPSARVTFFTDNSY
STK16 (Serine/threonine-protein kinase 16), sequence (O75716 whole entry, species assumed): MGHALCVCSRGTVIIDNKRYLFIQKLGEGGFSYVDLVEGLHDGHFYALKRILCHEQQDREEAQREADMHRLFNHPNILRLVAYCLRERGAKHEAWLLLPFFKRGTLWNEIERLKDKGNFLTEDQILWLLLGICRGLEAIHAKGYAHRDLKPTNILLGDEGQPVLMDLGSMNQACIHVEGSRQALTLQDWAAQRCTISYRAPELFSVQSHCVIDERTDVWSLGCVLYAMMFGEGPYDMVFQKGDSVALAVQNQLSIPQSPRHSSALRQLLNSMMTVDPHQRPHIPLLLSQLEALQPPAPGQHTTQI
BMP2K (BMP-2-inducible protein kinase), sequence (Q9NSY1 whole entry, species assumed): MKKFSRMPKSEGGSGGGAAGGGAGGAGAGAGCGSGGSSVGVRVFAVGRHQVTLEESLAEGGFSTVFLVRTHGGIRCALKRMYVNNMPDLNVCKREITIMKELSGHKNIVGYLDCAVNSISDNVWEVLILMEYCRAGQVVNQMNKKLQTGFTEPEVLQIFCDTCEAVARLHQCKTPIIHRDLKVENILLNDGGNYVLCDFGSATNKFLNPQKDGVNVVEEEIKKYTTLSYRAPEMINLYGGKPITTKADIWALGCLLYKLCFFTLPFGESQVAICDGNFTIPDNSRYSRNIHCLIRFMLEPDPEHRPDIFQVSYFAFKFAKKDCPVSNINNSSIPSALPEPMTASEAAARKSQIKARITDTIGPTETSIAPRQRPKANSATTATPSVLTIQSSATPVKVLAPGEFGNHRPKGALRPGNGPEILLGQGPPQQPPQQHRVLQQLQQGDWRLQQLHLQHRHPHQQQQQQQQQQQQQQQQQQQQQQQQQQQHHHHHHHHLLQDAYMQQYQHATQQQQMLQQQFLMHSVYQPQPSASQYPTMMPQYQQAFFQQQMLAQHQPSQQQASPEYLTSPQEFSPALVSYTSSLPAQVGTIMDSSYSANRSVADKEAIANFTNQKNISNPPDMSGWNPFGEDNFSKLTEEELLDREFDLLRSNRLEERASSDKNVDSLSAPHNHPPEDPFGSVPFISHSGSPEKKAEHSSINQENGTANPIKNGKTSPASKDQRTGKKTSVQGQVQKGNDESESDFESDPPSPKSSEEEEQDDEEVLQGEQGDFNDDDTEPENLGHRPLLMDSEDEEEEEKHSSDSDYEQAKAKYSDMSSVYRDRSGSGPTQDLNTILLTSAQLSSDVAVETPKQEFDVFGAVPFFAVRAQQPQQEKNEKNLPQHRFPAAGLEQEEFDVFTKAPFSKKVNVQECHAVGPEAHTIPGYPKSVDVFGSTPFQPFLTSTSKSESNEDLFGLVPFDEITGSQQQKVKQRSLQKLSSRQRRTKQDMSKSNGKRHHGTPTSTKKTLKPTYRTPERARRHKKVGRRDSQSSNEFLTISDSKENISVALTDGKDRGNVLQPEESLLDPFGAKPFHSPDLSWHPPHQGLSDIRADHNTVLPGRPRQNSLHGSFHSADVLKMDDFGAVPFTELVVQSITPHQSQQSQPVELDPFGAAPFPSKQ
PDGFRα (h), sequence (P16234 24-1089): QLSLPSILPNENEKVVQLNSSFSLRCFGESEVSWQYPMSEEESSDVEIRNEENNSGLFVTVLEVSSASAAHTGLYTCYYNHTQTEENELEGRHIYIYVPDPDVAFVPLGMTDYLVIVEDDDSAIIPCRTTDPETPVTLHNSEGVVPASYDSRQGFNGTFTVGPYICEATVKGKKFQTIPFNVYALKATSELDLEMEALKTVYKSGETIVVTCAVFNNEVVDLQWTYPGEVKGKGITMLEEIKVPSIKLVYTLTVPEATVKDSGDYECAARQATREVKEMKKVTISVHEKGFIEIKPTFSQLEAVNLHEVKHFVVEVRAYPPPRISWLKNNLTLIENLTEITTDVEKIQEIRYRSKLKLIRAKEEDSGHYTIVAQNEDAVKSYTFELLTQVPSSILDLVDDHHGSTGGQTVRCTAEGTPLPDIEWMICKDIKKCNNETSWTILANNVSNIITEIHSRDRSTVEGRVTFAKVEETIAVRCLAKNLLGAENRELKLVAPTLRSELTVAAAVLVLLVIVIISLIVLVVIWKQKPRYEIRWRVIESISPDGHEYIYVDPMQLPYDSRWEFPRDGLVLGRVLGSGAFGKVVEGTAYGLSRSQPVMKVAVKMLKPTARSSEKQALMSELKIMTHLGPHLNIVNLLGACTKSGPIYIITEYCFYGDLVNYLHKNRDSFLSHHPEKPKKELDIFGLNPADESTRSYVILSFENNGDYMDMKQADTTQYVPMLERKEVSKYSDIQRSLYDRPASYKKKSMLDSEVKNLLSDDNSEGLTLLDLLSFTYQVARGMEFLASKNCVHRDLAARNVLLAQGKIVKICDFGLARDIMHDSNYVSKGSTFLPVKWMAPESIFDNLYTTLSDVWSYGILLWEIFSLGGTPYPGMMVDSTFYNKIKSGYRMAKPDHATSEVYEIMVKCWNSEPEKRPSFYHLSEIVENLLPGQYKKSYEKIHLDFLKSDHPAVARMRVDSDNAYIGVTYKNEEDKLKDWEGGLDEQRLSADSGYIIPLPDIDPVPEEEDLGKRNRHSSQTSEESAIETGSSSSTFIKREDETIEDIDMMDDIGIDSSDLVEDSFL

Take `O=C1Nc2cc(S(F)(F)(F)(F)F)ccc2/C1=C/c1ccc[nH]1` [Compound 11, (Z)-3-(1H-Pyrrol-2-yl)methylene-6-pentafluorosulfanylindoline-2-one]: the IC50 in [1] is 0.35 ± 0.1 µM; in [2], 0.69 ± 0.4 µM; in assay [3] it was 135 µM; in [4] it was 0.23 µM; in assay [5] it was 1000 µM; in assay [6], greater than 1 µM. Moreover, the IC50 in assay [7] was 187 µM; in [8] it was 0.098 µM; in assay [9] it was 0.35 to 3.8 µM; in assay [10], 0.476 µM. Moreover, the “potency vs. PDGFRα” value in [8] worked out at 0.098 µM.

With `O=C1Nc2ccc(S(F)(F)(F)(F)F)cc2/C1=C/c1ccc[nH]1` [Compound 10, (Z)-3-(1H-Pyrrol-2-yl)methylene-5-pentafluorosulfanylindoline-2-one], the IC50 in assay [1] was 0.49 ± 0.4 µM; in assay [2], 4.8 ± 1 µM; in [3] it was 17.6 µM; in [4] it was greater than 1 µM; in [5], 1 µM; in [6], greater than 1 µM. Also, the IC50 in assay [7] was 0.452 µM; in assay [8], greater than 1 µM; in assay [9], 0.35 to 3.8 µM; in assay [10] it was 34.2 µM.

Take “5-Pentafluorosulfanyl-3-ferrocenylindolin-2-one [Compound 12a]”: the figures for the IC50 in assay [4], in [6] and in [8] were greater than 1 µM, 1.7 µM and greater than 1 µM, respectively. Also, the “inhibition of DYRK3” value in assay [6] is recorded as “low micromolar range”.

On to `Cc1[nH]c(/C=C2\C(=O)Nc3cc(S(F)(F)(F)(F)F)ccc32)c(C)c1CCC(=O)O` [Compound 14, (Z)-3-(2,4-Dimethyl-5-((6-pentafluorosulfanyl-2-oxoindolin-3-ylidene)methyl)-1H-pyrrol-3-yl)propanoic acid], for which the IC50 is greater than 1 µM in [3]; 0.018 µM in assay [4]; greater than 1 µM in assay [5]; greater than 1 µM in assay [6]; greater than 1 µM in assay [7]; 0.0031 µM in assay [8]. Further, in assay [10], the IC50 is greater than 1 µM. Also, the “IC50 vs. VEGFR3” value in [4] is listed as “low nM potency”. Moreover, the “IC50 vs. PDGFRα” value in assay [8] is recorded as “low nM potency”.

Regarding “5-Pentafluorosulfanyl-3-ferrocenylindolin-2-one [Compound 12b]”, the IC50 in assay [4] is greater than 1 µM; in [6] it was 2.4 µM; in [8] it was greater than 1 µM. In [6], the “inhibition of DYRK3” value was “low micromolar range”.

As to `Cc1[nH]c(/C=C2\C(=O)Nc3ccc(S(F)(F)(F)(F)F)cc32)c(C)c1CCC(=O)O` [Compound 13, (Z)-3-(2,4-Dimethyl-5-((5-pentafluorosulfanyl-2-oxoindolin-3-ylidene)methyl)-1H-pyrrol-3-yl)propanoic acid], the IC50 is greater than 1 µM in assay [3]; 0.53 µM in assay [4]; greater than 1 µM in assay [5]; greater than 1 µM in assay [6]; greater than 1 µM in assay [7]; greater than 1 µM in assay [8]. For the same compound, in [10], the IC50 is greater than 1 µM.
